Results: patent US20060128667A1, “Hydroxyphosphonates and phosphonophosphates as apolipoprotein e modulators” (priority 2002, published 2006)
Where two headings read alike, the source gives them in different places.

Test system: apoE secretion by THP-1 cell line
Type: cell-based, human
Details: THP-1 cells, 3 days
Excerpt: The hydroxyphosphonates (Ia) and phosphonophosphates (Ib) of the invention can modulate (increase or decrease) the apoE production in plasma and in tissues. The activities of the compounds can be determined in an in vitro cell assay consisting in determining the effect of the test compound in modulating the secretion of apoE by an apoE secreting cell line (e.g., a monocyte-macrophage cell line such as the THP-1 cell line; a liver derived cell line such as the HepG2 cell line, an intestinal derived cell line such as the CaCo2 cell line or a brain derived cell line such as the astrocytoma CCF-STTG1 cell line).
THP-1 cell line (ATCC TIB-202) are cultured in RPMI 1640 (with 2 mM of L-glutamine and 2 g/l of glucose, Invitrogen) supplemented with 2 g/l of sodium hydrogen carbonate (Fluka), 10 U/ml of penicillin, 10 μg/ml of streptomycin (Penicillin-Streptomycin, Invitrogen), 20 μM of 2-mercaptoethanol (Fluka) and 10% FCS (Amimed). Cells are incubated at 37° C. and 5% CO2.
Cells are seeded in 24 well tissue culture plates (Falcon), 2×10^5 cells in 500 μl of culture medium per well or 6 well plates for RT-PCR purpose, 1×10^6 cells in 2.5 ml of medium. PMA (Phorbol 12-myristate 13-acetate, Alexis), (stock in DMSO (Fluka) at 1 mg/ml) and other compounds are diluted in ethanol and added to the cells at an ethanol final concentration not exceeding 1%. Same volume of ethanol is added in controls. Plates are incubated for 3 days at 37° C. and 5% CO2 to allow cell differentiation and apoE secretion.
Medium contained in the wells is harvested and centrifuged 5 min at 1200 rpm. Supernatants are store at −20° C. until apoE quantification. The cell pellets are resuspended in PBS and counted with a Z1 Coulter Counter. After a wash with PBS, adherent cells in the well bottoms are detached with trypsin-EDTA solution 10× (Invitrogen) diluted in PBS. The reaction is stopped with the addition of culture medium and the detached cells are counted.
ApoE was quantified by ELISA. 96 well plates (Costar) are coated with 5% of gelatine (from porcine skin, Fluka) in carbonate-bicarbonate buffer (Sigma) for 1 hour at 37° C. After removing the coating solution, 100 μl of THP-1 supernatant are added per well, diluted 5 times in buffer (PBS, 1% Top-Block (Juro), 0.1% Tween 20 (Fluka)). The incubation last 1 hour at 37° C., then the wells are washed 3 times with 200 μl of buffer. Plates are incubated for 1 hour at 37° C. with continuous stirring with the primary antibody (goat anti-human apoE IgG, Calbiochem) at a 10000-time dilution in buffer, 100 μl per well. After 3 washes, plates are incubated with the secondary antibody (rabbit anti-goat-IgG peroxidase conjugated, Sigma) diluted 5000 times, 100 μl per well, at 37° C. with shaking. Then the wells are washed 5 more times and the detection is achieved by adding 100 μl per well of o-phenylenediamine dihydrochloride (Sigma) and incubated for 15-20 minutes with shaking at room temperature. When the appropriated colour is reached, the reaction is stopped by adding 50 μl per well of 3 M sulfuric acid (Fluka) with shaking for 1 minute at room temperature. The absorbance is read at 492 nm versus 620 nm with a microplate photometer (Anthos Reader 2001).

## CCOP(=O)(OCC)C(O)c1ccc(OCCCN2C(=O)c3ccccc3C2=O)cc1 (stereo not drawn) [Diethyl 1-hydroxy-1-{4-[3-N-phthalimido-propoxy]-phenyl}-methylphosphonate]
Compound 25 μM, 1.25 nM PMA
  % ApoE Change: 543%
Compound 25 μM, 2.5 nM PMA
  % ApoE Change: 304%
Compound 50 μM, 1.25 nM PMA
  % ApoE Change: 961%
Compound 50 μM, 2.5 nM PMA
  % ApoE Change: 396%
Compound 100 μM, 1.25 nM PMA
  % ApoE Change: 1436%
Compound 100 μM, 2.5 nM PMA
  % ApoE Change: 465%

## CCOP(=O)(OCC)C(O)c1ccc(OCc2ccccn2)cc1 (stereo not drawn) [Diethyl 1-hydroxy-1-[4-(pyridin-2-yl-methoxy)-phenyl]-methlyphosphonate]
Compound 25 μM, 1.25 nM PMA
  % ApoE Change: −9%
Compound 25 μM, 2.5 nM PMA
  % ApoE Change: 0%
Compound 50 μM, 1.25 nM PMA
  % ApoE Change: 24%
Compound 50 μM, 2.5 nM PMA
  % ApoE Change: 3%
Compound 100 μM, 1.25 nM PMA
  % ApoE Change: 76%
Compound 100 μM, 2.5 nM PMA
  % ApoE Change: 100%

## CCOP(=O)(OCC)OC(c1cccc(OCCCCCN2C(=O)c3ccccc3C2=O)c1)P(=O)(OCC)OCC (stereo not drawn) [Diethyl 1-(diethoxy-phosphinyloxy)-1-[3-(5-N-phthalimido-pentoxy)-phenyl]-methylphosphonate]
Compound 25 μM, 1.25 nM PMA
  % ApoE Change: 3375%
Compound 25 μM, 2.5 nM PMA
  % ApoE Change: 1196%
Compound 50 μM, 1.25 nM PMA
  % ApoE Change: 1526%
Compound 50 μM, 2.5 nM PMA
  % ApoE Change: 310%
Compound 100 μM, 1.25 nM PMA
  % ApoE Change: −93%
Compound 100 μM, 2.5 nM PMA
  % ApoE Change: −92%

## CCOP(=O)(OCC)OC(c1ccc(-c2ccccc2)cc1)P(=O)(OCC)OCC (stereo not drawn) [Diethyl 1-(diethoxy-phosphinyloxy)-1-(biphenyl-4-yl)-methyiphosphonate]
Compound 25 μM, 1.25 nM PMA
  % ApoE Change: 172%
Compound 25 μM, 2.5 nM PMA
  % ApoE Change: 138%
Compound 50 μM, 1.25 nM PMA
  % ApoE Change: 198%
Compound 50 μM, 2.5 nM PMA
  % ApoE Change: 119%
Compound 100 μM, 1.25 nM PMA
  % ApoE Change: 142%
Compound 100 μM, 2.5 nM PMA
  % ApoE Change: 71%

## CCOP(=O)(OCC)OC(c1cccc(OCc2cccnc2)c1)P(=O)(OCC)OCC (stereo not drawn) [Dietbyl 1-(diethoxy-phosphinyloxy)-1-[3-(pyridin-3-yl-methoxy)-phenyl]-methylphosphonate]
Compound 25 μM, 1.25 nM PMA
  % ApoE Change: 52%
Compound 25 μM, 2.5 nM PMA
  % ApoE Change: 15%
Compound 50 μM, 1.25 nM PMA
  % ApoE Change: 551%
Compound 50 μM, 2.5 nM PMA
  % ApoE Change: 6%
Compound 100 μM, 1.25 nM PMA
  % ApoE Change: 1351%
Compound 100 μM, 2.5 nM PMA
  % ApoE Change: 98%

## CCOP(=O)(OCC)OC(c1ccc(OCc2cccnc2)cc1)P(=O)(OCC)OCC (stereo not drawn) [Diethyl 1-(diethoxy-phosphinyloxy)-1-[4-(pyridin-3-yl-methoxy)-pheny]-methylphosphonate]
Compound 25 μM, 1.25 nM PMA
  % ApoE Change: 95%
Compound 25 μM, 2.5 nM PMA
  % ApoE Change: 179%
Compound 50 μM, 1.25 nM PMA
  % ApoE Change: 189%
Compound 50 μM, 2.5 nM PMA
  % ApoE Change: 245%
Compound 100 μM, 1.25 nM PMA
  % ApoE Change: 535%
Compound 100 μM, 2.5 nM PMA
  % ApoE Change: 434%

## CCOP(=O)(OCC)OC(c1cc(OC)c2c(c1)OCO2)P(=O)(OCC)OCC (stereo not drawn) [Diethyl 1-(diethoxy-phosphinyloxy)-1-[4-(3-methoxy-4,5-methylenedioxy)-phenyl]-methylphosphonate]
Compound 25 μM, 1.25 nM PMA
  % ApoE Change: −19%
Compound 25 μM, 2.5 nM PMA
  % ApoE Change: 7%
Compound 50 μM, 1.25 nM PMA
  % ApoE Change: 3%
Compound 50 μM, 2.5 nM PMA
  % ApoE Change: −5%
Compound 100 μM, 1.25 nM PMA
  % ApoE Change: 33%
Compound 100 μM, 2.5 nM PMA
  % ApoE Change: 40%
